# Literature values in patent publication US20240165107A1 (Cipla Limited, priority 2021, published 2024).
# Where two headings read alike, the source gives them in different places.
# Experiments:
# [1] = target: 5-HT2B receptors (Homo sapiens, UniProt P41595); conditions: antagonist
# [2] = target: T1, alA- adrenergic receptors (Homo sapiens, UniProt P35348)
# T1 sequence (P35348 1-466): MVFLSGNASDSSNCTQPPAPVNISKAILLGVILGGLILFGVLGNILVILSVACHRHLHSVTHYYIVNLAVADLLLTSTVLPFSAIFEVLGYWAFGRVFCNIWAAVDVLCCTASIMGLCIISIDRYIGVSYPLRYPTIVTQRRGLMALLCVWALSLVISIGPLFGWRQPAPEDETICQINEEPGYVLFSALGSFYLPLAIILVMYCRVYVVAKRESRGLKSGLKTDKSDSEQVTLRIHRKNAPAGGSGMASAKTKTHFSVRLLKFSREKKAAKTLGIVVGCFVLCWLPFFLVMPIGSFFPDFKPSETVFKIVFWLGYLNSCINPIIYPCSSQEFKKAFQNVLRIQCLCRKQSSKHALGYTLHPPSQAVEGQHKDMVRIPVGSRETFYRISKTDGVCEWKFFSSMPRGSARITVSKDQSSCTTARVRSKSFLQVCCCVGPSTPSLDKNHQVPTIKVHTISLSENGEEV
# [3] = target: 5-HT2A receptors (Homo sapiens, UniProt P28223); conditions: antagonist
# Chain of 5-HT2A receptors (P28223 whole entry): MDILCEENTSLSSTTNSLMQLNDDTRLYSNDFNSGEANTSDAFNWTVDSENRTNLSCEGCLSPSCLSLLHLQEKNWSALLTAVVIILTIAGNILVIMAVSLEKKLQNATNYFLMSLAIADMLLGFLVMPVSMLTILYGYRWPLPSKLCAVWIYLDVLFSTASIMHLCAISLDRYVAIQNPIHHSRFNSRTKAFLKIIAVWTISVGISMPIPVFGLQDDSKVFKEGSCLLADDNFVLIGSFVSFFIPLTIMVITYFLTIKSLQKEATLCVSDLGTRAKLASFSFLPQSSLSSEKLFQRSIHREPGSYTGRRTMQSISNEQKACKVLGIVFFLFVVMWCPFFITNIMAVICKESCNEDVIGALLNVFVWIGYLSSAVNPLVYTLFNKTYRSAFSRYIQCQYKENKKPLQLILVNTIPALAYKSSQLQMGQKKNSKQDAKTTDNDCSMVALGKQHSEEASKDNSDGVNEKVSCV
# [4] = rats; immediate release cariprazine capsules
# [5] = dogs; immediate release cariprazine capsules
# [6] = test system: cholinergic muscarinic receptors
# [7] = target: T2, serotonin 5-HT2C receptors (Homo sapiens, UniProt P28335)
# T2 sequence (P28335 33-458): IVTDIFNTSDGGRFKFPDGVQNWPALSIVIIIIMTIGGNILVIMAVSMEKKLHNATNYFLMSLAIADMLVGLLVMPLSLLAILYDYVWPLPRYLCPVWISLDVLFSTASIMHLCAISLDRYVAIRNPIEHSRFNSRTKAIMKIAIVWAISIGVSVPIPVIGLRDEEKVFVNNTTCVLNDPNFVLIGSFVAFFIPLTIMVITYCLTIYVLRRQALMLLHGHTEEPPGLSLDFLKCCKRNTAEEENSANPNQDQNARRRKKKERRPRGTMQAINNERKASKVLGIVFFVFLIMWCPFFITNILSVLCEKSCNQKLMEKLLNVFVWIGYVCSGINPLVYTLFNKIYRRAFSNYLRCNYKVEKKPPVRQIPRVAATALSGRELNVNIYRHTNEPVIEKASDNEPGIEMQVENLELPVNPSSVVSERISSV
# Chain of 5-HT2B receptors (P41595 whole entry): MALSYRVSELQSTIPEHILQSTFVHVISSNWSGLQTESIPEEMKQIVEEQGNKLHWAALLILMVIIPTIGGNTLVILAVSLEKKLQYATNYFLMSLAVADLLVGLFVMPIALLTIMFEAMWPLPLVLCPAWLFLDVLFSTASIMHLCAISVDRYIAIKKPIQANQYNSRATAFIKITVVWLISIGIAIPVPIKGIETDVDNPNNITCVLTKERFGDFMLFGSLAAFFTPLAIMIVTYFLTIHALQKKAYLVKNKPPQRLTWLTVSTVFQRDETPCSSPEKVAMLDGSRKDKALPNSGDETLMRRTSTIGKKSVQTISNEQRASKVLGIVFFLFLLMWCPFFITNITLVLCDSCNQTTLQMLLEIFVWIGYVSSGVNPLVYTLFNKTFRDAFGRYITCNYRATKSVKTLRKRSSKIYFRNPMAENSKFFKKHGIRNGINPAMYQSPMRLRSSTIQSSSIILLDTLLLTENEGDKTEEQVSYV
smiles,measurement,setting,value
"CN(C)C(=O)N[C@H]1CC[C@H](CCN2CCN(c3cccc(Cl)c3Cl)CC2)CC1 [Cariprazine, trans-N-{4-[2-[4-(2,3-dichlorophenyl)piperazine-1-yl]ethyl]cyclohexyl}-N′,N′-dimethylurea]",binding affinity,[1],high
same,binding affinity,[2],lower binding affinity
same,binding affinity,[3],moderate
same,oral absolute bioavailability,[4],52-63%
same,oral absolute bioavailability,[5],64-80%
same,affinity,[6],no appreciable affinity
same,binding affinity,[7],lower binding affinity
